{
  "source": "patent US20050276832A1",
  "about": "“Topical compositions and uses thereof for treating aquatic animals subjected to disinfection and vaccination” (Veterquimica Ltda., priority 2004, published 2005)",
  "system": "Saprolengia sp.",
  "test": "Antifungal bath treatment of Atlantic salmon infected by Saprolengia sp.",
  "type": "in vivo",
  "details": "1 h baths on Day 1 and Day 7",
  "from_the_text": "Five groups were formed, made up of 30 fish each of the Atlantic salmon species, 40-50 grams, showing clear signs of infection by the fungus Saprolengia sp., confirmed by laboratory tests. One of the groups was preserved as control without treatment, while the four remaining groups were subjected to experimental antifingal treatments. In this way, the groups were set up as follows: • GROUP 1: Without antifungal treatment • GROUP 2: Treated with the antifungal product bronopol, according to recommended dose of 20 ppm • GROUP 3: Treated with the Formulation A, in a dose of 28 ml/70 liters of water • GROUP 4: Treated with the Formulation B, in a dose of 28 ml/70 liters of water • GROUP 5: Treated with the Formulation C, in a dose of 28 ml/70 liters of water\nThe treatments consisted of the following: on Day 1, the fish were submerged for one hour in a bath with 70 liters of water to which the corresponding formulation had been added. Afterwards, they were transferred to breeding tanks that only contained water and with a standard feeding regime, all under the customary aquarium control that includes controlling the temperature (16-17 degrees C.), dissolved oxygen levels not lower than 7 ppm, and control of nitrites and ammonium. On Day 7, the fish were subjected to a second bath, similar to that of Day 1, to continue their development until 14 days of breeding had been completed, keeping a record of the fish killed due to the effect of the Saprolengia fungus. On Day 15, the fish that survived were harvested and the level of infection by Saprolengia was determined for each fish.\nThe infection level was classified according to the following scale: • INFECTION GRADE 0: healthy fish, without fungus on the skin • INFECTION GRADE 1: fish having only fungal spots on the skin. • INFECTION GRADE 2: fish with short fungal hypha • INFECTION GRADE 3: fish having necrosis of the tissues • INFECTION GRADE 4: fish with cottony hypha • INFECTION GRADE 5: fish dead due to fungal infection (occurring during the 14 days of breeding) Results",
  "data": [
    {"smiles": "O=[N+]([O-])C(Br)(CO)CO", "note": "[bromopol, bromo-2-nitropropane-1.3-diol]", "values": [
      {"measurement": "fish with grade 5 (death)", "setting": "30 fish per group, dead due to fungal infection during 14 days of breeding", "result": 50, "unit": "%"},
      {"measurement": "fish with grade 1-2", "setting": "infection level on Day 15, grade 1 fungal spots, grade 2 short fungal hypha", "result": 40, "unit": "%"},
      {"measurement": "fish with grade 0 (healthy)", "setting": "infection level on Day 15, without fungus on the skin", "result": 10, "unit": "%"}
    ]}
  ]
}
